Measurements published in patent publication US20260224592A1, “COMPOSITIONS AND METHODS FOR TREATING SEVERE […]” (SHENZHEN HIGHTIDE BIOPHARMACEUTICAL LTD., priority 2023, published 2026).

How the values were obtained:
[1] = test system: adults with NASH and T2DM; experiment: Study D: randomized, double-blind, placebo-controlled Phase 2 study in adults with NASH and T2DM, 18 weeks; assay type: in vivo, human
Protocol: Study D was a randomized, double-blind, placebo-controlled Phase 2 study in adults with NASH and T2DM. The primary objective of this study was to evaluate the change from baseline in liver fat content as assessed by MRI-PDFF, but also evaluated changes in key cardiometabolic parameters, including lipids. Key entry criteria included the clinical diagnosis of NASH and T2DM and BMI >25.0 kg/m2. Subjects were randomized and treated with placebo (N=33), BUDCA 500 mg BID (N=33), or BUDCA 1000 mg BID (N=34) for 18 weeks (Harrison 2021).
Demographic characteristics were generally well balanced among treatment groups. The median age overall was 57 years (range: 26 to 75 years), and there were 72% females and 28% males. Most subjects were White (91%) and not Hispanic or Latino (62%). Mean baseline weight and BMI were similar across treatment groups. On average, LDL-C was elevated and near the upper limit of the normal range and TGs were elevated above the normal. Baseline values for HbA1c, ALT, GGT, liver fat content, and cT1 were similar across treatment groups.
Study D evaluated the effects of BUDCA on lipids as secondary efficacy endpoints. On average, subjects had near-normal LDL-C at baseline with borderline-high levels of TG. While the average values were generally similar across treatment groups, it should be noted that LDL-C was lower in the BUDCA 500 mg BID treatment group while TGs were lower in the BUDCA 1000 mg BID treatment group (Table 6). […] Reductions in TGs with the […] dose were statistically significant compared with placebo. Reduced TG levels were paralleled with a reduction in LDL-C after 18 weeks of treatment with BUDCA 1000 mg BID (−13%), but not with BUDCA 500 mg BID (3%) or with placebo (0%).

[2] = test system: high fat diet induced hyperlipidemia/NAFLD hamster model; experiment: Study A: high-fat/high-cholesterol diet induced hyperlipidemia/NAFLD hamster model, 7 weeks treatment; assay type: in vivo, Male Golden Syrian hamsters; settings: for HDL-c (serum) / LDL-c (serum) / PCSK9 (serum) / TC (serum) / TG (serum) / AI value (atherosclerosis index): mean ± SEM; for AI value (atherosclerosis index): AI = (TC − HDL-c)/HDL-c
Protocol: Various pre-clinical and clinical studies were performed to evaluate safety and efficacy of BUDCA. Primary and secondary pharmacodynamics studies were performed. Specific to nonclinical proof of concept for BUDCA in SHTG, the efficacy of BUDCA on hyperlipidemia/NAFLD was evaluated in two studies (Study A and Study B) using a high fat diet induced hyperlipidemia/NAFLD hamster model. Dietary induced changes in hamsters can be considered a valid model for dyslipidemia.
Male Golden Syrian hamsters were fed with a high-fat/high-cholesterol diet which contained 1.25% cholesterol, 20.06% grease (2.79% soybean oil, 17.27% cocoa butter) to establish the hyperlipidemia/NAFLD model. After 2 weeks of high-fat/high-cholesterol diet inducement, 24 hamsters with fasting TC level 17.96±1.70 mmol/L were selected and divided into 3 groups of 8 hamsters each (model group G1, 50 mg/kg/day BUDCA group G2, and 200 mg/kg/day BUDCA group G3). Eight hamsters comprising the normal control were fed with a normal chow diet.
The normal and Model control groups received vehicle (10 mL/kg 0.5% gum tragacanth solution), while the two BUDCA treatment groups received BUDCA, via intragastric administration for 7 weeks prior to sacrifice.
During the treatment period, blood was collected at weeks 1, 3, 5, and 7, for biochemical analysis including serum TC, TG, HDL-c, LDL-c, and liver enzymes. At the end of the study, animals were sacrificed for liver macroscopic observation and liver tissues were collected for histopathological evaluations and liver lipid contents.

[3] = test system: overweight or obese adults with hypercholesterolemia; experiment: Study C: Phase 1b/2a study in overweight or obese adults with hypercholesterolemia, 28 days; assay type: in vivo, human; settings: BUDCA 250, 500 or 1000 mg BID, maximum reductions relative to placebo after 14 days
Protocol: In a Phase 1b/2a study, 50 overweight or obese adults with hypercholesterolemia were enrolled and treated with BUDCA for 28 days. The primary objective was to evaluate safety and tolerability of BUDCA. Given that the subjects enrolled in this study were obese with a history of hypercholesteremia, the focus of the efficacy and PD endpoints was lipid metabolism. Key entry criteria included BMI 2 and LDL-C, BUDCA 250 mg BID (N=12), BUDCA 500 mg BID (N=12), or BUDCA 1000 mg BID (N=12).
While all subjects had hypercholesteremia at baseline, TG levels generally ranged from normal to mild HTG (three subjects from each of placebo, BUDCA 500 mg BID, and BUDCA 1000 mg BID had TG values >200 mg/dL) and HDL-C levels were generally in the normal range.

[4] = test system: high fat diet induced hyperlipidemia/NAFLD hamster model; experiment: Study B: hyperlipidemia/NAFLD hamster model, BUDCA versus UDCA or BBR-Cl, 6 weeks treatment; assay type: in vivo, golden hamster; settings: for Serum lipids HDL-c / Serum lipids LDL-c / Serum lipids TC / Serum lipids TG: 6 weeks daily oral, equimolar high doses: 200 mg/kg BUDCA; for Serum lipids HDL-c / Serum lipids LDL-c / Serum lipids TC / Serum lipids TG / Liver TC / Liver TG / Proportion of oil red O staining positive area / Steatosis Score of HE staining: 107.8 mg/kg UDCA, 102.2 mg/kg BBR-Cl, mean ± SEM; for Liver TC / Liver TG / Proportion of oil red O staining positive area / Steatosis Score of HE staining: 200 mg/kg BUDCA
Protocol: Study B was conducted using the same hamster model as described in Study A to evaluate the efficacy of BUDCA as well as to compare the effects of BUDCA with equivalent doses of either UDCA or BBR-Cl on their own. The model was induced with the same method as indicated in Study A. After the 2-week induction period, hamsters were randomized into treatment groups and continued the high fat diet for an additional 6-week period, concurrent with the daily oral administration of various doses of BUDCA (Low dose: […]; Medium dose: 100 mg/mL; […]), BBR-Cl on its own (Low dose: 51.1 mg/mL; […]), UDCA on its own (Low dose: 53.9 mg/mL; […]), or a 1:1 physical mixture of BBR-Cl and UDCA equivalent to a lower dose of BUDCA (105.0 mg/mL). A model control group continued the high fat diet and normal control group fed the standard diet were both administered the vehicle 0.5% carboxymethyl cellulose sodium (CMC-Na) solution. All animals were sacrificed for terminal evaluations at the end of the 6-week dosing period.
Endpoints evaluated included serum lipids (TC, TG, LDL-C, HDL-C), liver lipid content (TC and TG), liver injury (ALT, AST, total bile acids (TBA) and total bilirubin (TBIL)), liver weight (expressed relative to body weight as liver index), macroscopic observation and histopathology evaluation of the livers. Histopathology endpoints included pathologist observation, as well as numerical comparison via the nonalcoholic fatty liver disease activity score (NAS) and a fibrosis severity score.
Terminal endpoints in model control animals also confirmed increased liver weight and histopathology of the liver as evidenced by steatosis, hepatocytes swelling, punctate necrosis, inflammatory cell infiltration and local fibrosis. Therefore, the model was not only able to replicate key characteristics of the NAFLD disease spectrum in humans, but also hyperlipidemia.

subjects with HTG = experiment: Pooled analysis of Study C and Study D in subjects with HTG (baseline TGs above 200 mg/dL); assay type: in vivo, human; settings: for placebo-corrected median percent change from baseline in TGs: end of treatment
Protocol: Efficacy was also tested in two clinical studies that established merits for further clinical study in patients with SHTG: Study C was conducted in adults with hypercholesterolemia and […] and T2DM. A pooled analysis was conducted based on these two studies specifically evaluating the data from subjects who had HTG at baseline (TG 200 mg/dL).
To further investigate the potential of BUDCA for lowering TGs in patients with elevated TGs, a pooled analysis across studies Study C and Study D was conducted focusing on the subjects with baseline TGs above 200 mg/dL (HTG) (Table 6). The analysis pooled the baseline and end of treatment timepoints for this evaluation as the two studies had different durations (4 weeks vs 18 weeks).

[5] = 50 mg/kg/day BUDCA intragastric, 7 weeks
[6] = 200 mg/kg/day BUDCA intragastric, 7 weeks
[7] = both doses of BUDCA, HTG subgroup

COc1ccc2cc3[n+](cc2c1OC)CCc1cc2c(cc1-3)OCO2.C[C@H](CCC(=O)[O-])[C@H]1CC[C@H]2[C@@H]3[C@@H](O)C[C@@H]4C[C@H](O)CC[C@]4(C)[C@H]3CC[C@]12C [BUDCA, Berberine Ursodeoxycholate]
HbA1c change from baseline ([1]; 18 weeks of BUDCA treatment (500 and 1000 mg BID), in contrast to increase with placebo): Significant dose dependent reductions
LDL-C, change from baseline to week 18 ([1]; BUDCA 500 mg BID, 18 weeks): 3%
TG levels, change from baseline to week 18 ([1]; BUDCA 500 mg BID, 18 weeks): −9%
mean change in fasting plasma glucose ([1]; BUDCA 500 mg BID, 18 weeks): -18 mg/dL
LDL-C, change from baseline to week 18 ([1]; BUDCA 1000 mg BID, 18 weeks): −13%
TG levels, change from baseline to week 18 ([1]; BUDCA 1000 mg BID, 18 weeks): −11%
mean change in fasting plasma glucose ([1]; BUDCA 1000 mg BID, 18 weeks): -22 mg/dL
change from baseline in body weight ([1]; BUDCA 1000 mg BID, 18 weeks, p<0.05 vs placebo): -3.5 kg
HDL-c (serum) [2, 5]: 3.42 ± 0.28 mmol/L
LDL-c (serum) [2, 5]: 2.95 ± 1.72 mmol/L
PCSK9 (serum) [2, 5]: 124.9 ± 16.8 pg/mL
TC (serum) [2, 5]: 9.78 ± 2.58 mmol/L
TG (serum) [2, 5]: 3.88 ± 1.21 mmol/L
Liver TC ([2]; 50 mg/kg/day BUDCA, 7 weeks): 14.62 ± 4.89 mg/g
Liver TG ([2]; 50 mg/kg/day BUDCA, 7 weeks): 5.40 ± 2.64 mg/g
AI value (atherosclerosis index) ([2]; 50 mg/kg/day BUDCA, 7 weeks): 1.88 ± 0.83
HDL-c (serum) [2, 6]: 2.53 ± 0.29 mmol/L
LDL-c (serum) [2, 6]: 1.23 ± 0.28 mmol/L
PCSK9 (serum) [2, 6]: 179.0 ± 30.9 pg/mL
TC (serum) [2, 6]: 4.95 ± 0.84 mmol/L
TG (serum) [2, 6]: 1.90 ± 0.66 mmol/L
Liver TC ([2]; 200 mg/kg/day BUDCA, 7 weeks): 3.82 ± 1.78 mg/g
Liver TG ([2]; 200 mg/kg/day BUDCA, 7 weeks): 5.61 ± 1.98 mg/g
AI value (atherosclerosis index) ([2]; 200 mg/kg/day BUDCA, 7 weeks): 0.95 ± 0.19
serum PCSK9 levels compared to the Model control group ([2]; 7-weeks of BUDCA treatment, P<0.05): significantly reduced
serum TG, TC, LDL-c levels, and AI compared to the model group ([2]; BUDCA 50 and 200 mg/kg/day, 7 weeks, P<0.01, dose-dependent): significantly reduced
liver contents of TG and TC compared to the model group ([2]; both doses of BUDCA, 7 weeks, P<0.01): significantly decreased
serum lipid levels [3]: decreased in a dose-dependent fashion
Serum lipids HDL-c [4]: 4.25 ± 0.40 mmol/L
Serum lipids LDL-c [4]: 1.26 ± 0.15 mmol/L
Serum lipids TC [4]: 7.03 ± 0.73 mmol/L
Serum lipids TG [4]: 2.06 ± 0.39 mmol/L
Liver TC ([4]; 6 weeks): 4.59 ± 0.84 mg/g
Liver TG ([4]; 6 weeks): 3.92 ± 0.50 mg/g
Proportion of oil red O staining positive area ([4]; 6 weeks): 1.18 ± 0.69 %
Steatosis Score of HE staining ([4]; 6 weeks): 1.00 ± 0.38
serum TC and TG, LDL-C, ALT, AST, TBA, TBIL, liver weight, liver TC and TG, NAS score, and fibrosis (score and % area) ([4]; relative to model control animals, low, medium and high dose BUDCA, 6 weeks): reduced all the following parameters in a dose dependent manner
beneficial effects on most parameters, including serum lipids and liver lipid deposition, compared with the individual moieties ([4]; versus equivalent doses of UDCA or BBR administered alone): greater than those achieved with either UDCA or BBR when administered alone
placebo-corrected median percent change from baseline in TGs (subjects with HTG; BUDCA 500 mg BID, 95% CI (−52.63, 17.93)): −12.3%
HDL-C at the end of treatment (subjects with HTG; BUDCA 1000 mg BID, HTG population): increase in HDL-C
placebo-corrected median percent change from baseline in TGs (subjects with HTG; BUDCA 1000 mg BID, 95% CI (−55.57, 16.61)): −17.7%
change from baseline to end of treatment in body weight (subjects with HTG; BUDCA 1000 mg BID, subjects with HTG, based solely on one of the two studies): -4.6 kg
LDL-C at the end of treatment (subjects with HTG; both doses of BUDCA (500 and 1000 mg BID), HTG population): decrease in LDL-C
HbA1c (subjects with HTG; [7]): no worsening of HbA1c
fasting plasma glucose (subjects with HTG; [7]): decrease in fasting plasma glucose

C[C@H](CCC(=O)O)[C@H]1CC[C@H]2[C@@H]3[C@@H](O)C[C@@H]4C[C@H](O)CC[C@]4(C)[C@H]3CC[C@]12C [UDCA]
Serum lipids HDL-c [4]: 4.81 ± 0.15 mmol/L
Serum lipids LDL-c [4]: 3.83 ± 0.47 mmol/L
Serum lipids TC [4]: 10.13 ± 0.73 mmol/L
Serum lipids TG [4]: 2.17 ± 0.18 mmol/L
Liver TC ([4]; 6 weeks): 17.95 ± 4.04 mg/g
Liver TG ([4]; 6 weeks): 11.24 ± 2.69 mg/g
Proportion of oil red O staining positive area ([4]; 6 weeks): 11.72 ± 4.65 %
Steatosis Score of HE staining ([4]; 6 weeks): 2.13 ± 0.35

COc1ccc2cc3[n+](cc2c1OC)CCc1cc2c(cc1-3)OCO2.[Cl-] [BBR-Cl]
Serum lipids HDL-c [4]: 5.24 ± 0.30 mmol/L
Serum lipids LDL-c [4]: 6.53 ± 1.10 mmol/L
Serum lipids TC [4]: 14.86 ± 1.23 mmol/L
Serum lipids TG [4]: 3.72 ± 0.37 mmol/L
Liver TC ([4]; 6 weeks): 29.27 ± 4.47 mg/g
Liver TG ([4]; 6 weeks): 19.18 ± 2.24 mg/g
Proportion of oil red O staining positive area ([4]; 6 weeks): 18.97 ± 2.43 %
Steatosis Score of HE staining ([4]; 6 weeks): 2.75 ± 0.16
